Assay results: US6451828B1, “Selective inhibition of glutaminase by bis-thiadiazoles” (priority 2000, dated 2002)

What was measured:
[1] = tested on: intestinal epithelial (CACO2) cells; experiment: Intracellular nucleotides in intestinal epithelial cells; assay type: cell-based; settings: at 10 μM, FIG. 5B
Method: The remaining volume of the extracts was used for chromatographic determination of nucleic acids, as described in Di Pierro et al. This assay reflects the activity of a variety of glutamine amidotransferases, including CTP synthetase, which are mechanistically and functionally related to glutaminase.
CTP synthetase is a glutamine amidotransferase which synthesizes CTP by adding the amide nitrogen of glutamine to UTP.
Intestinal epithelial (CACO2) cells were grown in 12 well plates with Eagles minimal essential medium containing 2 mM glutamine, as recommended (American Tissue Culture Collection). When the cells reached about 80% confluency, fresh glutamine was added to 2 mM. […] After 6.5 h of incubation, cultures were washed twice with phosphate buffered saline and extracted with 100 μL 1M perchloric acid. Extracts were neutralized with 30 μL of 5M potassium carbonate, centrifuged, and analyzed by HPLC for nucleotides, as described in Di Pierro et al. 1995, and for amino acids, as described in Lo et al. 1998. Results are shown in FIG. 5A (amino acids) and FIG. 5B (nucleotides).

cathespin B = cathespin B (Homo sapiens, UniProt P07858); experiment: Specificity: effect on mechanistically related enzyme; assay type: biochemical; settings: at 30 μM (data not shown)
Method: (§1) Specificity for glutaminase was evaluated at two levels. Compounds were evaluated for specific interactions with several thiol hydrolases (cathepsin B, caspase-9, calpain-1, and […]). These are cysteine proteases which are believed to function by a mechanisms similar to that of glutaminase. Compounds were also evaluated for effects on intracellular amino acids and nucleotides in CACO2 (intestinal epithelial) cells (Example 5), and for effects on amino acids in primary cultures of cerebellar neurons (granule cells) and astrocytes (Examples 6-7). These measurements reflect interactions with other glutamine utilizing enzymes involved in amino acid and nucleic acid biosynthesis and homeostasis. For example, a decrease in cytidine triphosphate (CTP) and an increase in uridine triphosphate (UTP) on treatment with DON (6-diazo-5-oxo-L-norleucine), a known nonselective antiglutamine affinity label, is indicative of inhibition of the activity of CTP synthetase, for which UTP is the substrate and CTP the product.

thrombin = thrombin (Homo sapiens, UniProt P00734); experiment: as above; assay type: biochemical; settings: at 30 μM (data not shown)
Method: as §1

caspase 9 = biological target: T1, caspase 9 (Homo sapiens, UniProt P55211); experiment: as above; assay type: biochemical; settings: at 30 μM (data not shown)
T1 sequence (P55211 1-416): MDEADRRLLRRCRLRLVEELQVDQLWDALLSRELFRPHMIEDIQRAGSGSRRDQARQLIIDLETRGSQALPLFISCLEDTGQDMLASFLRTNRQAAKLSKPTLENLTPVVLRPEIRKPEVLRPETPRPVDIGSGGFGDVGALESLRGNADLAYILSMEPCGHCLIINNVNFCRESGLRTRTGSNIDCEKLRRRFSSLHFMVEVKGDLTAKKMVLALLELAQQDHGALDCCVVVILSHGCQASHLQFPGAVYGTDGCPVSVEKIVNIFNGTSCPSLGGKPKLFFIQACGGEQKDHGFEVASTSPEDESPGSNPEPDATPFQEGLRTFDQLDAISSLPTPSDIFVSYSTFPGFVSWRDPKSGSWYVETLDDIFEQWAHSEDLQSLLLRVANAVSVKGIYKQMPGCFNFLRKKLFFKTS
Method: as §1

calpain 1 = biological target: T2, calpain 1 (Homo sapiens, UniProt P07384); experiment: as above; assay type: biochemical; settings: at 30 μM (data not shown)
T2 sequence (P07384 1-714): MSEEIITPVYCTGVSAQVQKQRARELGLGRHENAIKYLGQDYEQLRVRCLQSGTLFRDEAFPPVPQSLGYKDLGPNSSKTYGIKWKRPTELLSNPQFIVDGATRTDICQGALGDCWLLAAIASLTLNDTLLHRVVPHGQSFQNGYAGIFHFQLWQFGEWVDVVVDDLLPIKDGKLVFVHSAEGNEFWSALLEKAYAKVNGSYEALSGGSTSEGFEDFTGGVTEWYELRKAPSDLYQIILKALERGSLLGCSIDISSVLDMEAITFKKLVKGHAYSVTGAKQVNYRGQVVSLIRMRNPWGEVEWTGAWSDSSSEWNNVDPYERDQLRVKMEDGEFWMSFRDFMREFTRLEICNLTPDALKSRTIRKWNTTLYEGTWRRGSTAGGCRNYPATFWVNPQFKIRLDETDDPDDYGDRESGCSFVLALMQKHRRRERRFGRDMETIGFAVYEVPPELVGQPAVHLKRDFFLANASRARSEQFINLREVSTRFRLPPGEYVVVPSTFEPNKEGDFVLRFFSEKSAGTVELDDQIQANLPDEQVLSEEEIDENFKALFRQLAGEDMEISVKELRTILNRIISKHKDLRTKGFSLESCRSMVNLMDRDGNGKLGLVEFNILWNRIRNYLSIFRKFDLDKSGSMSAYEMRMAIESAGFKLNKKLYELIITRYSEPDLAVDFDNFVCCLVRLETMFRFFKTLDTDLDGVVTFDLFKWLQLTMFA
T2 sequence (P04632 1-268 partner): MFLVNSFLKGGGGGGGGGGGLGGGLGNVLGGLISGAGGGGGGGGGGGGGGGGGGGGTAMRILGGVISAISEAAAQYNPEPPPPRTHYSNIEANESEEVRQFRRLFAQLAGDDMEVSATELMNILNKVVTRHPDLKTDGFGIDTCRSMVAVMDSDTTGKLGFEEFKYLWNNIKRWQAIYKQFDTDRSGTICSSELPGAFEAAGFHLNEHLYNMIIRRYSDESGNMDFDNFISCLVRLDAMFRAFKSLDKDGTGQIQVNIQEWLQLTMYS
Method: as §1

O=C(Cc1ccccc1)Nc1nnc(CCSCCc2nnc(NC(=O)Cc3ccccc3)s2)s1 [SNX-1770, bis-2′-[5-(phenylacetamido)-1,3,4-thiadiazol-2-yl]ethyl sulfide]
Effect on intracellular nucleotides [1]: no effect
Effect on cathespin B (cathespin B): Nor did it have any effect
Effect on thrombin (thrombin): Nor did it have any effect
Effect on caspase 9 (caspase 9): Nor did it have any effect
Effect on calpain 1 (calpain 1): Nor did it have any effect
